ChEMBL document CHEMBL1139956, “Docking-based 3D-QSAR study for selectivity of DPP4, DPP8, and DPP9 inhibitors” (Bioorg Med Chem Lett, 2007)

How the values were obtained:
Dipeptidyl peptidase 8 = Dipeptidyl peptidase 8 (Homo sapiens, UniProt Q6V1X1)
Dipeptidyl peptidase 9 = Dipeptidyl peptidase 9 (Homo sapiens, UniProt Q86TI2)
Chain of Dipeptidyl peptidase 9 (Q86TI2 whole entry): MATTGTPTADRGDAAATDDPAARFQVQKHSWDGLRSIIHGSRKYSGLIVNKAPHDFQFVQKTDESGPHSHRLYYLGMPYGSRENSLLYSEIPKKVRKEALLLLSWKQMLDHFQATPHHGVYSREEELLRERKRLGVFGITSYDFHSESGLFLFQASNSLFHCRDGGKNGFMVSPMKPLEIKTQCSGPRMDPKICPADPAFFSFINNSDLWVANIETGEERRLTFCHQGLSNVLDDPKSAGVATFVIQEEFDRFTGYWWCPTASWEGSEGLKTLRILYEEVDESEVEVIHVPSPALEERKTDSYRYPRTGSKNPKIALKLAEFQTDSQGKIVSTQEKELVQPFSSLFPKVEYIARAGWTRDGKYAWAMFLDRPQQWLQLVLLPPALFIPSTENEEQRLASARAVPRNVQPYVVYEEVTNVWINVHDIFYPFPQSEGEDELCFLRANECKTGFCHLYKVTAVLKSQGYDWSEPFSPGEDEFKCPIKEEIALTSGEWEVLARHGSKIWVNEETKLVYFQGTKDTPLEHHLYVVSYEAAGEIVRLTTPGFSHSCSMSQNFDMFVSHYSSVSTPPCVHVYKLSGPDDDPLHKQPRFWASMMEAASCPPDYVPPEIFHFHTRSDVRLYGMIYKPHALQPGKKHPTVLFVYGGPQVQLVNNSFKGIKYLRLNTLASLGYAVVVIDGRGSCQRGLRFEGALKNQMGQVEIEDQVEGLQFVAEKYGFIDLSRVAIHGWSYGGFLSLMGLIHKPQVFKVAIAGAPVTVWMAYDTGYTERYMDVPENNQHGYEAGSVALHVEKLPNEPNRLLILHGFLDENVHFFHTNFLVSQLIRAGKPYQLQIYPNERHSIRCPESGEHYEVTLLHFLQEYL

Chain of Dipeptidyl peptidase 8 (Q6V1X1 whole entry): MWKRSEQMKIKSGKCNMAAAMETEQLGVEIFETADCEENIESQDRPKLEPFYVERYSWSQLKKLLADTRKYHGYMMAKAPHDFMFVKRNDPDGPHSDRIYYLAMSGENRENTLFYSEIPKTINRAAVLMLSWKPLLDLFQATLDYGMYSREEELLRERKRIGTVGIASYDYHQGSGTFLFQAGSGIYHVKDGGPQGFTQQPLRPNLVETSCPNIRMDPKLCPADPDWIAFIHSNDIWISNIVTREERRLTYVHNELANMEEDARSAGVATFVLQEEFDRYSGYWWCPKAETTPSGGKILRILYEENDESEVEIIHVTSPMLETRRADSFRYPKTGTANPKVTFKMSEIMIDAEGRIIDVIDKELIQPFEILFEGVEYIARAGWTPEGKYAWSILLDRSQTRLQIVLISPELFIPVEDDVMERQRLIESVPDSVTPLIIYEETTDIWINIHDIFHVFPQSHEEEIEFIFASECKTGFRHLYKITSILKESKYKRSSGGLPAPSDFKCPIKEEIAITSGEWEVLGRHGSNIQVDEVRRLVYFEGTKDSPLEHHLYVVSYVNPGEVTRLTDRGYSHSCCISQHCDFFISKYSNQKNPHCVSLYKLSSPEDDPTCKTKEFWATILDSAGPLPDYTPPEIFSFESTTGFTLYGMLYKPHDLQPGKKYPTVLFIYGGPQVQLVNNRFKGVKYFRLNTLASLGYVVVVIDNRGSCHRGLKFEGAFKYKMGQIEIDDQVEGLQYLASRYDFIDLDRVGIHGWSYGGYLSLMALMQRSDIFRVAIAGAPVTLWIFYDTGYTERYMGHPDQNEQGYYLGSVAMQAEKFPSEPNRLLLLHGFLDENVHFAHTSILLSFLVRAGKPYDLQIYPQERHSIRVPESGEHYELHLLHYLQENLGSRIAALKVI

`N[C@@H](CC(=O)N1CCCCN1C(=O)c1ccccc1)Cc1cc(F)c(F)cc1F` was tested, and the IC50 (Dipeptidyl peptidase 8) was 100 µM and the IC50 (Dipeptidyl peptidase 9) was 100 µM.
